# Experimental data as given in patent US7396837B2, “Antitumoral analogs of lamellarins” (Pharma Mar, S.A.U., priority 2002, dated 2008).
# Where two headings read alike, the source gives them in different places.
# What was measured:
# Type in all cases: cell-based
# [1] = system: PANC-1; experiment: SRB colorimetric cell growth inhibition assay, PANC-1; conditions: for CC50: LC=cell killing (cytotoxic effect), read-out: LC50 PANC-1; for IC (TGI): TGI=total growth inhibition (cytostatic effect), read-out: TGI PANC-1; for GI50: GI=growth inhibition, read-out: GI50 PANC-1
# In short: (§1)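 Sulforhodamine B colorimetric readout measured cell growth and viability after continuous compound exposure of human cancer cell lines in 96-well plates. Triplicate wells gave mean ± SD, from which growth inhibition (GI), cytostatic total growth inhibition (TGI) and cytotoxic cell killing (LC) were calculated.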
# [2] = system: LoVo-Dox; experiment: SRB colorimetric cell growth inhibition assay, LoVo-Dox (MDR); conditions: LOVO-DOX; for CC50: LC=cell killing (cytotoxic effect), read-out: LC50 LOVO-DOX; for IC (TGI): TGI=total growth inhibition (cytostatic effect), read-out: TGI LOVO-DOX; for GI50: GI=growth inhibition, read-out: GI50 LOVO-DOX
# In short: as §1
# [3] = system: LNCaP; experiment: SRB colorimetric cell growth inhibition assay, LNCaP; conditions: LN-caP; for CC50: cell killing (cytotoxic effect), read-out: LC50 LN-caP; for IC (TGI): total growth inhibition (cytostatic effect), read-out: TGI LN-caP; for GI50: GI=growth inhibition, read-out: GI50 LN-caP
# In short: as §1
# [4] = system: IGROV; experiment: SRB colorimetric cell growth inhibition assay, IGROV; conditions: IGROV; for GI50: GI=growth inhibition, read-out: GI50 IGROV; for CC50: cell killing (cytotoxic effect), read-out: LC50 IGROV
# In short: as §1
# [5] = system: SK-MEL-28; experiment: SRB colorimetric cell growth inhibition assay, SK-MEL-28; conditions: for CC50: cell killing (cytotoxic effect), read-out: LC50 MEL-28; for GI50: GI=growth inhibition, read-out: GI50 MEL-28
# In short: as §1
# [6] = system: SKOV-3; experiment: SRB colorimetric cell growth inhibition assay, SKOV-3; conditions: Homo sapiens; for GI50: SK-OV-3, SKOV-3, GI=growth inhibition, read-out: GI50 SKOV-3; for LC50 (concentration causing 50% net cell killing) / IC (TGI): SK-OV-3, SKOV-3; for LC50 (concentration causing 50% net cell killing): cell killing (cytotoxic effect), read-out: LC50 SKOV-3; for IC (TGI): total growth inhibition (cytostatic effect), read-out: TGI SKOV-3
# In short: (§2)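 Growth inhibition (GI), total growth inhibition (TGI, cytostatic) and lethal concentration (LC, cytotoxic) come from an SRB-based colorimetric measure of growth and viability. Data are triplicate-well means ± SD.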
# [7] = system: SK-BR-3; experiment: SRB colorimetric cell growth inhibition assay, SK-BR-3; conditions: for CC50: cell killing (cytotoxic effect), read-out: LC50 SK-BR-3; for GI50: GI=growth inhibition, read-out: GI50 SK-BR-3
# In short: as §1
# [8] = system: K-562; experiment: SRB colorimetric cell growth inhibition assay, K-562; conditions: for CC50: LC=cell killing (cytotoxic effect), read-out: LC50 K-562; for IC (TGI): TGI=total growth inhibition (cytostatic effect), read-out: TGI K-562; for GI50: GI=growth inhibition, read-out: GI50 K-562
# In short: as §1
# [9] = system: IGROV-ET; experiment: SRB colorimetric cell growth inhibition assay, IGROV-ET (ET-743 resistant); conditions: IGROV-ET; for GI50: GI=growth inhibition, read-out: GI50 IGROV-ET; for CC50: cell killing (cytotoxic effect), read-out: LC50 IGROV-ET
# In short: as §1
# [10] = system: LoVo; experiment: SRB colorimetric cell growth inhibition assay, LoVo; conditions: for CC50: LC=cell killing (cytotoxic effect), read-out: LC50 LOVO; for IC (TGI): TGI=total growth inhibition (cytostatic effect), read-out: TGI LOVO; for GI50: GI=growth inhibition, read-out: GI50 LOVO
# In short: as §1
# [11] = system: HT-29; experiment: SRB colorimetric cell growth inhibition assay, HT-29; conditions: for GI50: GI=growth inhibition, read-out: GI50 HT-29; for CC50: LC=cell killing (cytotoxic effect), read-out: LC50 HT-29; for IC (TGI): TGI=total growth inhibition (cytostatic effect), read-out: TGI HT-29
# In short: as §1
# [12] = system: DU-145; experiment: SRB colorimetric cell growth inhibition assay, DU-145; conditions: for GI50: GI=growth inhibition, read-out: GI50 DU-145; for CC50: cell killing (cytotoxic effect), read-out: LC50 DU-145
# In short: as §1
# [13] = system: A-549; experiment: SRB colorimetric cell growth inhibition assay, A-549; conditions: for GI50: GI=growth inhibition, read-out: GI50 A-549; for CC50: LC=cell killing (cytotoxic effect), read-out: LC50 A-549; for IC (TGI): TGI=total growth inhibition (cytostatic effect), read-out: TGI A-549
# In short: as §1
# [14] = system: H-MEC-1; experiment: SRB colorimetric cell growth inhibition assay, H-MEC-1; conditions: Homo sapiens, HMEC-1, H-MEC-1; for GI50: GI=growth inhibition, read-out: GI50 H-MEC-1; for IC (TGI): total growth inhibition (cytostatic effect), read-out: TGI H-MEC-1
# In short: as §2
# [15] = as above; conditions: human, H-MEC-1 cells; H-MEC-1; cell killing (cytotoxic effect); read-out: LC50 H-MEC-1
# In short: as §2
# [16] = total growth inhibition (cytostatic effect)
# [17] = Homo sapiens, SK-MEL-28, MEL-28
compound,measurement,setting,value
COc1cc(-c2c3c4cc(OC)c(OC(=O)[C@@H](N)Cc5ccccc5)cc4oc(=O)c3n3ccc4c(OC(=O)[C@@H](N)Cc5ccccc5)c(OC)c(OC)cc4c23)ccc1OC(=O)[C@@H](N)Cc1ccccc1 [Compound 31],CC50,"[1]; Homo sapiens, PANC-1, PANC-1",7620 nM
same,IC (TGI),"[1]; Homo sapiens, PANC-1, PANC-1",7620 nM
same,GI50,[1]; PANC-1,1960 nM
same,CC50,[2]; Homo sapiens,7620 nM
same,IC (TGI),[2]; Homo sapiens,7620 nM
same,GI50,[2],1490 nM
same,CC50,"[3]; Homo sapiens, LNCaP",3430 nM
same,IC (TGI),"[3]; Homo sapiens, LNCaP",1450 nM
same,GI50,[3],548 nM
same,GI50,[4],1260 nM
same,CC50,[4],7620 nM
same,TGI IGROV,[4]; [16],7.62E−06 Molar
same,CC50,[5]; [17],7620 nM
same,GI50,[5]; MEL-28,482 nM
same,TGI MEL-28,"[5]; MEL-28, total growth inhibition (cytostatic effect)",7.62E−06 Molar
same,GI50,[6],524 nM
same,LC50 (concentration causing 50% net cell killing),[6],7620 nM
same,IC (TGI),[6],4220 nM
same,CC50,"[7]; Homo sapiens, SK-BR-3, SK-BR-3",7620 nM
same,GI50,[7]; SK-BR-3,1800 nM
same,TGI SK-BR-3,"[7]; SK-BR-3, total growth inhibition (cytostatic effect)",7.62E−06 Molar
same,CC50,"[8]; Homo sapiens, K562, K-562",7620 nM
same,IC (TGI),"[8]; Homo sapiens, K562, K-562",2470 nM
same,GI50,[8]; K-562,410 nM
same,GI50,[9],1390 nM
same,CC50,[9],7620 nM
same,TGI IGROV-ET,[9]; [16],4.00E−06 Molar
same,CC50,"[10]; Homo sapiens, LoVo",7620 nM
same,IC (TGI),"[10]; Homo sapiens, LoVo",5350 nM
same,GI50,[10]; LOVO,1980 nM
same,GI50,[11]; HT-29,7620 nM
same,CC50,"[11]; Homo sapiens, HT-29, HT-29",7620 nM
same,IC (TGI),"[11]; Homo sapiens, HT-29, HT-29",7620 nM
same,GI50,[12]; DU-145,301 nM
same,CC50,[12]; DU-145,7620 nM
same,TGI DU-145,"[12]; DU-145, total growth inhibition (cytostatic effect)",8.61E−07 Molar
same,GI50,[13]; A-549,433 nM
same,CC50,"[13]; Homo sapiens, A549, A-549",4600 nM
same,IC (TGI),"[13]; Homo sapiens, A549, A-549",1420 nM
same,GI50,[14],119 nM
same,IC (TGI),[14],260 nM
same,LC50 (concentration giving 50% net cell killing),[15],565 nM
COc1cc(-c2c3c4cc(OC)c(OC(=O)[C@@H]5CCCN5)cc4oc(=O)c3n3ccc4c(OC(=O)[C@@H]5CCCN5)c(OC)c(OC)cc4c23)ccc1OC(=O)[C@@H]1CCCN1 [Compound 30],GI50,"[1]; Homo sapiens, PANC-1, PANC-1",805 nM
same,CC50,"[1]; Homo sapiens, PANC-1, PANC-1",5640 nM
same,IC (TGI),"[1]; Homo sapiens, PANC-1, PANC-1",2180 nM
same,GI50,[2]; Homo sapiens,683 nM
same,CC50,[2]; Homo sapiens,5220 nM
same,IC (TGI),[2]; Homo sapiens,1930 nM
same,GI50,"[3]; Homo sapiens, LNCaP",275 nM
same,CC50,"[3]; Homo sapiens, LNCaP",4900 nM
same,IC (TGI),"[3]; Homo sapiens, LNCaP",1270 nM
same,GI50,[4]; Homo sapiens,350 nM
same,CC50,[4]; Homo sapiens,6990 nM
same,IC (TGI),"[4]; Homo sapiens, total growth inhibition (cytostatic effect), read-out: TGI IGROV",1470 nM
same,GI50,[5]; [17],251 nM
same,CC50,[5]; [17],4420 nM
same,IC (TGI),"[5]; Homo sapiens, SK-MEL-28, MEL-28, total growth inhibition (cytostatic effect), read-out: TGI MEL-28",1080 nM
same,GI50,[6],348 nM
same,LC50 (concentration causing 50% net cell killing),[6],5360 nM
same,IC (TGI),[6],1240 nM
same,GI50,"[7]; Homo sapiens, SK-BR-3, SK-BR-3",498 nM
same,CC50,"[7]; Homo sapiens, SK-BR-3, SK-BR-3",6390 nM
same,IC (TGI),"[7]; Homo sapiens, SK-BR-3, SK-BR-3, total growth inhibition (cytostatic effect), read-out: TGI SK-BR-3",1610 nM
same,GI50,"[8]; Homo sapiens, K562, K-562",204 nM
same,CC50,"[8]; Homo sapiens, K562, K-562",8600 nM
same,IC (TGI),"[8]; Homo sapiens, K562, K-562",1100 nM
same,GI50,[9]; Homo sapiens,450 nM
same,CC50,[9]; Homo sapiens,6630 nM
same,IC (TGI),"[9]; Homo sapiens, total growth inhibition (cytostatic effect), read-out: TGI IGROV-ET",1830 nM
same,GI50,"[10]; Homo sapiens, LoVo",383 nM
same,CC50,"[10]; Homo sapiens, LoVo",3770 nM
same,IC (TGI),"[10]; Homo sapiens, LoVo",1060 nM
same,GI50,"[11]; Homo sapiens, HT-29, HT-29",2810 nM
same,CC50,"[11]; Homo sapiens, HT-29, HT-29",8600 nM
same,IC (TGI),"[11]; Homo sapiens, HT-29, HT-29",5060 nM
same,GI50,"[12]; Homo sapiens, DU-145, DU-145",53.8 nM
same,CC50,"[12]; Homo sapiens, DU-145, DU-145",3840 nM
same,IC (TGI),"[12]; Homo sapiens, DU-145, DU-145, total growth inhibition (cytostatic effect), read-out: TGI DU-145",265 nM
same,GI50,"[13]; Homo sapiens, A549, A-549",341 nM
same,CC50,"[13]; Homo sapiens, A549, A-549",6640 nM
same,IC (TGI),"[13]; Homo sapiens, A549, A-549",1270 nM
same,GI50,[14],70.5 nM
same,IC (TGI),[14],241 nM
same,LC50 (concentration giving 50% net cell killing),[15],840 nM
